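The compound was tested at five concentrations on cells cultured in 96-well plates, with a 48-hour exposure period. At the GI50, growth is halved. TGI: concentration producing complete growth inhibition.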
How the values were obtained:
Test in all cases: inhibition of tumour cell growth, NCI panel, 48 h
DU-145 prostate = tested on: DU-145 prostate
SNB-19 CNS = tested on: SNB-19 CNS
RPMI-8226 leukemia = tested on: RPMI-8226 leukemia
M14 melanoma = tested on: M14 melanoma
PC-3 prostate = tested on: PC-3 prostate
ACHN renal = tested on: ACHN renal
T-47D breast = tested on: T-47D breast
SK-MEL-28 melanoma = tested on: SK-MEL-28 melanoma
HOP-62 NSCLC = tested on: HOP-62 NSCLC
OVCAR-3 ovarian = tested on: OVCAR-3 ovarian
NCI-H460 lung = tested on: NCI-H460 lung
HS 578T breast = tested on: HS 578T breast
U251 CNS = tested on: U251 CNS
SK-OV-3 ovarian = tested on: SK-OV-3 ovarian
NCI-H23 lung = tested on: NCI-H23 lung
SNB-75 CNS = tested on: SNB-75 CNS
IGROV1 ovarian = tested on: IGROV1 ovarian
EKVX NSCLC = tested on: EKVX NSCLC
OVCAR-5 ovarian = tested on: OVCAR-5 ovarian
MDA-MB-435 = tested on: MDA-MB-435
MDA-MB-231 breast = tested on: MDA-MB-231 breast
OVCAR-8 ovarian = tested on: OVCAR-8 ovarian
A549 NSCLC = tested on: A549 NSCLC
RXF 393 renal = tested on: RXF 393 renal
SW-620 colon = tested on: SW-620 colon
K-562 leukemia = tested on: K-562 leukemia
NCI-H226 lung = tested on: NCI-H226 lung
COLO 205 colon = tested on: COLO 205 colon
SK-MEL-2 melanoma = tested on: SK-MEL-2 melanoma
SF-539 CNS = tested on: SF-539 CNS
MOLT-4 leukemia = tested on: MOLT-4 leukemia
NCI/ADR-RES ovarian = tested on: NCI/ADR-RES ovarian
SK-MEL-5 melanoma = tested on: SK-MEL-5 melanoma
HL-60(TB) leukemia = tested on: HL-60(TB) leukemia
UACC-257 melanoma = tested on: UACC-257 melanoma
HCT-116 colon = tested on: HCT-116 colon
786-0 renal = tested on: 786-0 renal
SR leukemia = tested on: SR leukemia
HOP-92 NSCLC = tested on: HOP-92 NSCLC
LOX IMVI melanoma = tested on: LOX IMVI melanoma
CAKI-1 renal = tested on: CAKI-1 renal
KM12 colon = tested on: KM12 colon
A498 renal = tested on: A498 renal
HCT-15 colon = tested on: HCT-15 colon
HT29 colon = tested on: HT29 colon
TK-10 renal = tested on: TK-10 renal
NCI-H522 lung = tested on: NCI-H522 lung
SF-295 CNS = tested on: SF-295 CNS
UACC-62 melanoma = tested on: UACC-62 melanoma
OVCAR-4 ovarian = tested on: OVCAR-4 ovarian
MCF7 breast = tested on: MCF7 breast
SF-268 CNS = tested on: SF-268 CNS
UO-31 renal = tested on: UO-31 renal
CCRF-CEM leukemia = tested on: CCRF-CEM leukemia
BT-549 breast = tested on: BT-549 breast
SN12C renal = tested on: SN12C renal
HCC-2998 colon = tested on: HCC-2998 colon
MALME-3M melanoma = tested on: MALME-3M melanoma

## CC(=O)Nc1cccc(C#Cc2cncnc2Nc2ccc(OCc3cccc(F)c3)c(Cl)c2)c1
DU-145 prostate
  GI50: 10 µM
  TGI: > 25 µM
SNB-19 CNS
  GI50: 24.6 µM
  TGI: > 25 µM
RPMI-8226 leukemia
  GI50: 12.7 µM
  TGI: > 25 µM
M14 melanoma
  GI50: 10.8 µM
  TGI: > 25 µM
PC-3 prostate
  GI50: 8.49 µM
  TGI: > 25 µM
ACHN renal
  GI50: 6.09 µM
  TGI: > 25 µM
T-47D breast
  GI50: 3.7 µM
  TGI: > 25 µM
SK-MEL-28 melanoma
  GI50: 17.1 µM
  TGI: > 25 µM
HOP-62 NSCLC
  GI50: > 19.8 µM
  TGI: > 25 µM
OVCAR-3 ovarian
  GI50: 7.53 µM
  TGI: > 25 µM
NCI-H460 lung
  GI50: 8.94 µM
  TGI: > 25 µM
HS 578T breast
  GI50: 10.2 µM
  TGI: > 25 µM
U251 CNS
  GI50: 11.8 µM
  TGI: > 25 µM
SK-OV-3 ovarian
  GI50: 6.14 µM
  TGI: > 25 µM
NCI-H23 lung
  GI50: 10.6 µM
  TGI: > 25 µM
SNB-75 CNS
  GI50: 13.2 µM
  TGI: > 25 µM
IGROV1 ovarian
  GI50: 4.49 µM
  TGI: > 25 µM
EKVX NSCLC
  GI50: 2.01 µM
  TGI: > 21.5 µM
OVCAR-5 ovarian
  GI50: 12.7 µM
  TGI: > 25 µM
MDA-MB-435
  GI50: 8.14 µM
  TGI: > 25 µM
MDA-MB-231 breast
  GI50: 15.6 µM
  TGI: > 25 µM
OVCAR-8 ovarian
  GI50: 6.35 µM
  TGI: 24.9 µM
A549 NSCLC
  GI50: 5.87 µM
  TGI: > 25 µM
RXF 393 renal
  GI50: 0.753 µM
  TGI: > 15.1 µM
SW-620 colon
  GI50: 17.9 µM
  TGI: > 25 µM
K-562 leukemia
  GI50: 8.96 µM
  TGI: > 25 µM
NCI-H226 lung
  GI50: 10 µM
  TGI: > 25 µM
COLO 205 colon
  GI50: 9.17 µM
  TGI: > 25 µM
SK-MEL-2 melanoma
  GI50: 6.43 µM
  TGI: > 22.8 µM
SF-539 CNS
  GI50: 14.9 µM
  TGI: > 25 µM
MOLT-4 leukemia
  GI50: 6.82 µM
  TGI: > 25 µM
NCI/ADR-RES ovarian
  GI50: 6.86 µM
  TGI: > 25 µM
SK-MEL-5 melanoma
  GI50: 8.12 µM
  TGI: > 25 µM
HL-60(TB) leukemia
  GI50: 7.59 µM
  TGI: > 25 µM
UACC-257 melanoma
  GI50: 13.7 µM
  TGI: > 25 µM
HCT-116 colon
  GI50: 9.1 µM
  TGI: > 25 µM
786-0 renal
  GI50: 7.66 µM
  TGI: > 25 µM
SR leukemia
  GI50: > 18.7 µM
  TGI: > 25 µM
HOP-92 NSCLC
  GI50: 4.05 µM
  TGI: > 22.5 µM
LOX IMVI melanoma
  GI50: 8.12 µM
  TGI: > 25 µM
CAKI-1 renal
  GI50: 3.3 µM
  TGI: > 25 µM
KM12 colon
  GI50: 9.64 µM
  TGI: > 25 µM
A498 renal
  GI50: 1.1 µM
  TGI: > 16.6 µM
HCT-15 colon
  GI50: 7.41 µM
  TGI: > 25 µM
HT29 colon
  GI50: 7.89 µM
  TGI: > 25 µM
TK-10 renal
  GI50: 1.6 µM
  TGI: 16.3 µM
NCI-H522 lung
  GI50: 4.47 µM
  TGI: 23.9 µM
SF-295 CNS
  GI50: 6.47 µM
  TGI: > 25 µM
UACC-62 melanoma
  GI50: 8.88 µM
  TGI: > 25 µM
OVCAR-4 ovarian
  GI50: 7.6 µM
  TGI: > 25 µM
MCF7 breast
  GI50: 8.33 µM
  TGI: > 25 µM
SF-268 CNS
  GI50: 16.6 µM
  TGI: > 25 µM
UO-31 renal
  GI50: 3.55 µM
  TGI: > 25 µM
CCRF-CEM leukemia
  GI50: 10.2 µM
  TGI: > 25 µM
BT-549 breast
  GI50: 11.9 µM
  TGI: > 25 µM
SN12C renal
  GI50: 10.2 µM
  TGI: > 25 µM
HCC-2998 colon
  GI50: 7.94 µM
  TGI: > 25 µM
MALME-3M melanoma
  GI50: 12.5 µM
  TGI: > 25 µM

## CCOC(=O)[C@@H](C)C[C@H](Cc1ccccc1)NC(=O)c1csc([C@@H](C[C@H](C(C)C)N(C)C(=O)CNC(=O)[C@H]2CCCCN2C)OC(C)=O)n1
DU-145 prostate
  GI50: 0.58 µM
  TGI: > 9.17 µM
SNB-19 CNS
  GI50: 0.758 µM
  TGI: > 14.3 µM
RPMI-8226 leukemia
  GI50: 0.496 µM
  TGI: > 14.3 µM
M14 melanoma
  GI50: 0.804 µM
  TGI: 7.31 µM
PC-3 prostate
  GI50: 0.508 µM
  TGI: > 14.3 µM
ACHN renal
  GI50: 0.837 µM
  TGI: > 14.3 µM
T-47D breast
  GI50: 0.59 µM
  TGI: > 14.3 µM
SK-MEL-28 melanoma
  GI50: 1.52 µM
  TGI: > 14.3 µM
HOP-62 NSCLC
  GI50: 1.87 µM
  TGI: > 14.3 µM
OVCAR-3 ovarian
  GI50: 0.334 µM
  TGI: 1.33 µM
NCI-H460 lung
  GI50: 0.612 µM
  TGI: > 6.66 µM
HS 578T breast
  GI50: 1.5 µM
  TGI: > 8.43 µM
U251 CNS
  GI50: 1 µM
  TGI: > 14.3 µM
SK-OV-3 ovarian
  GI50: 0.835 µM
  TGI: > 14.3 µM
NCI-H23 lung
  GI50: 2.34 µM
  TGI: > 14.3 µM
SNB-75 CNS
  GI50: 0.534 µM
  TGI: > 14.3 µM
IGROV1 ovarian
  GI50: 0.628 µM
  TGI: > 14.3 µM
EKVX NSCLC
  GI50: 1.97 µM
  TGI: > 14.3 µM
OVCAR-5 ovarian
  GI50: 3.58 µM
  TGI: > 14.3 µM
MDA-MB-435
  GI50: 0.228 µM
  TGI: 0.801 µM
MDA-MB-231 breast
  GI50: 1.44 µM
  TGI: > 10.8 µM
OVCAR-8 ovarian
  GI50: 2.84 µM
  TGI: > 14.3 µM
A549 NSCLC
  GI50: 3.49 µM
  TGI: > 14.3 µM
RXF 393 renal
  GI50: 0.502 µM
  TGI: 4.62 µM
SW-620 colon
  GI50: 0.733 µM
  TGI: > 14.3 µM
K-562 leukemia
  GI50: 0.358 µM
  TGI: > 14.3 µM
NCI-H226 lung
  GI50: > 5.67 µM
  TGI: > 14.3 µM
COLO 205 colon
  GI50: 0.483 µM
  TGI: 3.64 µM
SK-MEL-2 melanoma
  GI50: 0.69 µM
  TGI: > 14.3 µM
SF-539 CNS
  GI50: 1.74 µM
  TGI: 5.46 µM
MOLT-4 leukemia
  GI50: 3.12 µM
  TGI: > 14.3 µM
NCI/ADR-RES ovarian
  GI50: > 14.3 µM
  TGI: > 14.3 µM
SK-MEL-5 melanoma
  GI50: 0.444 µM
  TGI: > 7.3 µM
HL-60(TB) leukemia
  GI50: 0.312 µM
  TGI: 1.01 µM
HCT-116 colon
  GI50: 0.529 µM
  TGI: > 14.3 µM
786-0 renal
  GI50: 1.37 µM
  TGI: > 14.3 µM
SR leukemia
  GI50: 0.145 µM
  TGI: > 14.3 µM
HOP-92 NSCLC
  GI50: 0.254 µM
  TGI: 2.63 µM
LOX IMVI melanoma
  GI50: 2.14 µM
  TGI: > 14.3 µM
CAKI-1 renal
  GI50: 0.771 µM
  TGI: > 14.3 µM
KM12 colon
  GI50: 0.556 µM
  TGI: > 14.3 µM
A498 renal
  GI50: 0.464 µM
  TGI: 1.38 µM
HCT-15 colon
  GI50: 1.49 µM
  TGI: > 14.3 µM
HT29 colon
  GI50: 0.467 µM
  TGI: > 14.3 µM
TK-10 renal
  GI50: > 7.9 µM
  TGI: > 14.3 µM
NCI-H522 lung
  GI50: 0.463 µM
  TGI: > 3.79 µM
SF-295 CNS
  GI50: 0.621 µM
  TGI: 6.85 µM
UACC-62 melanoma
  GI50: 0.514 µM
  TGI: > 14.3 µM
OVCAR-4 ovarian
  GI50: 1.3 µM
  TGI: > 14.3 µM
MCF7 breast
  GI50: 0.319 µM
  TGI: > 14.3 µM
SF-268 CNS
  GI50: 4.89 µM
  TGI: > 14.3 µM
UO-31 renal
  GI50: 5.07 µM
  TGI: > 14.3 µM
CCRF-CEM leukemia
  GI50: 1.08 µM
  TGI: > 14.3 µM
BT-549 breast
  GI50: 0.891 µM
  TGI: > 14.3 µM
SN12C renal
  GI50: 2.18 µM
  TGI: > 14.3 µM
HCC-2998 colon
  GI50: 0.795 µM
  TGI: > 14.3 µM
MALME-3M melanoma
  GI50: 0.601 µM
  TGI: > 14.3 µM
